Data set [1] concerns the target T1, Free fatty acid receptor 1 (Homo sapiens, UniProt O14842). Briefly: Transactivation of human GPR40 expressed in HEK293 cells at 10 uM after 24 hrs by Elk-Gal4 luciferase reporter assay relative to TAK-875. The class given is functional, cell-based. (In general: A reporter such as luciferase makes a cellular process visible.)
Data set [2] is described as follows: Induction of 16.8 mM glucose-stimulated insulin secretion in ICR mouse primary pancreatic islets assessed per protein at 10 uM after 1 hr by ELISA (reference value: 1.8 +/- 0.6 ng/ml). Format: functional, Pancreatic islet.
Data set [3] addresses T2, CYP2D6 (Homo sapiens, UniProt P10635). Briefly: Inhibition of CYP2D6 in human liver microsomes at 5 uM using dextromethorphan as substrate by LC-MS/MS analysis relative to control. As to conditions: probe dextromethorphan. The class given is ADME.
Data set [4] has as its target CYP2C9 (Homo sapiens, UniProt P11712). Briefly: Inhibition of CYP2C9 in human liver microsomes at 5 uM using diclofenac sodium as substrate by LC-MS/MS analysis relative to control. The class given is ADME. The settings on record: probe diclofenac sodium. In general terms: Liver microsomes are vesicles of endoplasmic reticulum, rich in cytochrome P450 enzymes.
Data set [5] deals with CYP3A4 (Homo sapiens, UniProt P08684). In words: Inhibition of CYP3A4 in human liver microsomes at 5 uM using midazolam as substrate by LC-MS/MS analysis relative to control. The class given is ADME. The settings on record: probe midazolam.
CYP3A4, sequence (P08684 whole entry): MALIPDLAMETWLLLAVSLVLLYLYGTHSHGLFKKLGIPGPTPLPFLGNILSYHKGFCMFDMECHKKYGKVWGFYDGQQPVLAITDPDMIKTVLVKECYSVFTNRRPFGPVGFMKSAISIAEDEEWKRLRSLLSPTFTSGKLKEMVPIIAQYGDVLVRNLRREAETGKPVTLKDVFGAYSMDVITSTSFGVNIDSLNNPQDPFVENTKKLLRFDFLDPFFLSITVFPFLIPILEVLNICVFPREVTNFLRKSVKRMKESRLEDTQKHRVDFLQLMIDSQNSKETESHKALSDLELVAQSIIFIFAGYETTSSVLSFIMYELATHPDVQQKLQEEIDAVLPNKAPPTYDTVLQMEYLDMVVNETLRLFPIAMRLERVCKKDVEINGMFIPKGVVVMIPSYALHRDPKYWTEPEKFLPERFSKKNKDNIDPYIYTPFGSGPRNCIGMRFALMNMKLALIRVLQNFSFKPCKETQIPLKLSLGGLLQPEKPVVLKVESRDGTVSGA
The target of data set [6] is T3, CYP1A2 (Homo sapiens, UniProt P05177).
T3 sequence (P05177 whole entry): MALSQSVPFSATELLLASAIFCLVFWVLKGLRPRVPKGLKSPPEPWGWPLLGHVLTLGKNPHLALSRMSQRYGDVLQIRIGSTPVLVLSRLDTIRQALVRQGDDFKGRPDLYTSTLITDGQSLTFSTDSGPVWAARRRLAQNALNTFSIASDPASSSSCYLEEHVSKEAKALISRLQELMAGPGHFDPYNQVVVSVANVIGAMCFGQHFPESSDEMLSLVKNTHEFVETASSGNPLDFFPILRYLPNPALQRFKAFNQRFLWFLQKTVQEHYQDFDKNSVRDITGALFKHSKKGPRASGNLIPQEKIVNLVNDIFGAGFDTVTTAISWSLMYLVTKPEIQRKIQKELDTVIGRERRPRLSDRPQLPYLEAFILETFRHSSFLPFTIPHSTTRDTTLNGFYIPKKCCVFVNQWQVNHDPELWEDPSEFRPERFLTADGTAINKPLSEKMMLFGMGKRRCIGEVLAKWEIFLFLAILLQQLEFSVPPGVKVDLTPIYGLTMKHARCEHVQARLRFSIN
Briefly: Inhibition of CYP1A2 in human liver microsomes at 5 uM using phenacetin as substrate by LC-MS/MS analysis relative to control. Format: ADME. The settings on record: probe phenacetin.

Data set [7] deals with Mus musculus. In words: Antidiabetic activity in ICR mouse assessed as blood glucose levels at 50 mg/kg, po administered 1 hr prior to glucose challenge measured at 30 mins post glucose challenge (reference value: 227.6 +/- 18.7 mg/dl). Format: functional.
Data set [8] relates to Mus musculus. Briefly: Antidiabetic activity in ICR mouse assessed as blood glucose levels at 50 mg/kg, po administered 1 hr prior to glucose challenge measured at 60 mins post glucose challenge (reference value: 175.8 +/- 25 mg/dl). Format: functional.
The test system of data set [9] is Mus musculus. In words: Antidiabetic activity in ICR mouse assessed as blood glucose levels at 50 mg/kg, po administered 1 hr prior to glucose challenge measured at 120 mins post glucose challenge (reference value: 53.7 +/- 9.9 mg/dl). Format: functional.
Data set [10] concerns Mus musculus. Briefly: Antidiabetic activity in ICR mouse assessed as blood glucose AUC at 50 mg/kg, po administered 1 hr prior to glucose challenge measured after 120 mins post glucose challenge (reference value: 290 +/ 23.5 mg.hr/dl). Format: functional, organism-based. The arrangement: dose 50 mg/kg, time < 2 hr.
The target in data set [11] is T1, Free fatty acid receptor 1. In words: Transactivation of human GPR40 expressed in HEK293 cells after 24 hrs by Elk-Gal4 luciferase reporter assay. Format: functional, cell-based.
Data set [12] has as its system Mus musculus. In words: Antidiabetic activity in ICR mouse assessed as reduction of blood glucose AUC at 50 mg/kg, po administered 1 hr prior to glucose challenge measured after 120 mins post glucose challenge relative to control. Format: functional. Further details: scale not given: the % may be the effect or the level left.
Data set [13] concerns the target T2, CYP2D6. Briefly: Inhibition of CYP2D6 in human liver microsomes at 2 uM using dextromethorphan as substrate by LC-MS/MS analysis relative to control. The settings on record: probe dextromethorphan.
The target in data set [14] is T3, CYP1A2. Briefly: Inhibition of CYP1A2 in human liver microsomes at 10 uM using phenacetin as substrate by LC-MS/MS analysis relative to control. The settings on record: probe phenacetin. The class given is ADME.

pEC50: −log10 of the molar value.

T1 sequence (O14842 whole entry, the tested form may be a part): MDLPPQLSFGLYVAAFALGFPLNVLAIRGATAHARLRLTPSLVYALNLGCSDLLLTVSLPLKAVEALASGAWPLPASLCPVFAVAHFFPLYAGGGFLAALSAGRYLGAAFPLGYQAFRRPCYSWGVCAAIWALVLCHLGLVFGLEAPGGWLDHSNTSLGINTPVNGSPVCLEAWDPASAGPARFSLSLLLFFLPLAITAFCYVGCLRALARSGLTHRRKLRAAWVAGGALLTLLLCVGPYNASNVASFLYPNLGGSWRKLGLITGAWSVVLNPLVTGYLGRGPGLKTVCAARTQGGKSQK
T2 sequence (P10635 whole entry): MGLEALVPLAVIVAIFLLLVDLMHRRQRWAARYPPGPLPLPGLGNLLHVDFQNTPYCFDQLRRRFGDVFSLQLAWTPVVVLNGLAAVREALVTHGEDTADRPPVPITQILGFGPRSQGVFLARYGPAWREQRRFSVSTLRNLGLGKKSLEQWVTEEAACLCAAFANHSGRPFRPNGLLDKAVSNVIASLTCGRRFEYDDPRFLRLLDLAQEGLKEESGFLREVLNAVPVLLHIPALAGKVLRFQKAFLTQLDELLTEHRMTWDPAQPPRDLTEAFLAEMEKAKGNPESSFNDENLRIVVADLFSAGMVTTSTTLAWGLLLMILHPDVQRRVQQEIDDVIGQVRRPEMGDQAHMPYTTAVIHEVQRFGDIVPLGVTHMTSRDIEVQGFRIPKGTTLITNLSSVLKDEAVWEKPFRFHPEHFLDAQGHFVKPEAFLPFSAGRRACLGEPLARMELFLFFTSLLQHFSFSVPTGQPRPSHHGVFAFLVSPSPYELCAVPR
CYP2C9, sequence (P11712 whole entry): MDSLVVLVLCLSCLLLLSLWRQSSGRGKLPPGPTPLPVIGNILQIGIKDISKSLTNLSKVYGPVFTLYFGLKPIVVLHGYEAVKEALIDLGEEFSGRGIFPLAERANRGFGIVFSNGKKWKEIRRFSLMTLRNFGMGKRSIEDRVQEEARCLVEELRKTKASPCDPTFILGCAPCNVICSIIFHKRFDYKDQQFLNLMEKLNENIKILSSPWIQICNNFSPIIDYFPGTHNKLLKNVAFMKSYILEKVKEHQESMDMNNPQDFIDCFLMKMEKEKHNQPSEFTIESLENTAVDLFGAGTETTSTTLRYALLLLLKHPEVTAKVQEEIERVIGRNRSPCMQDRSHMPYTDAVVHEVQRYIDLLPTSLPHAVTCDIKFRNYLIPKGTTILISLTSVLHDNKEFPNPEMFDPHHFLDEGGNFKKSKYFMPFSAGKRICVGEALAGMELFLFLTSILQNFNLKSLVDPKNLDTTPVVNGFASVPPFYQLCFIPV

Turning to `CC(=O)N1CCc2cc(-c3cccc(COc4ccc5c(c4)OC[C@H]5CC(=O)O)c3)ccc2C1`, the Activity in [1] stood at 5%.
Molecule `CC(C)(CC(=O)O)c1ccc(OCc2cccc(-c3ccc4c(c3)CN(Cc3ccccc3)CC4)c2)cc1` registered an Activity in data set [1] of 22.8%.
Broadly, the inhibition is the relative decrease from the control value, in per cent. For the molecule `Cc1cc(OCCCS(C)(=O)=O)cc(C)c1-c1cccc(COc2ccc3c(c2)OC[C@H]3CC(=O)O)c1`, the Activity in data set [2] is 2.1 ng/mL; in data set [7], 155.2 mg/dL; in data set [8], 120 mg/dL; in data set [9], 49 mg/dL. The inhibition at 5 µM in data set [3] was 23.2%; in [4], 21%; in data set [5], 34%; in [6], 28%. The AUC in data set [10] was 2.07e+06 ng·h/mL.
Molecule `CC(=O)N1Cc2ccc(-c3cccc(COc4ccc5c(c4)OC[C@H]5CC(=O)O)c3)cc2C1` displayed an Activity in [1] of 36.8%.
As for `Nc1ccc(S(=O)(=O)Nc2ccnn2-c2ccccc2)cc1` [SULFAPHENAZOLE], the inhibition at 5 µM in data set [4] was 94.9%.
`CC(=O)N1CCc2c(cccc2-c2cccc(COc3ccc4c(c3)OC[C@H]4CC(=O)O)c2)C1` showed an Activity in data set [1] of 43.6%.
As for `O=C(O)C[C@@H]1COc2cc(OCc3cccc(-c4ccc5c(c4)CN(CCc4ccccc4)C5)c3)ccc21`, the Activity in [1] is 77%.
Still for that read-out and setting: under `O=C(O)C[C@@H]1COc2cc(OCc3cccc(-c4ccc5c(c4)CN(C(=O)c4ccccc4)C5)c3)ccc21` stands 60.8%; under `O=C(O)C[C@@H]1COc2cc(OCc3cccc(-c4ccc5c(c4)CCN(C(=O)Cc4ccccc4)C5)c3)ccc21`, 31.6%; under `O=C(O)COc1ccc(OCc2cccc(-c3ccc4c(c3)CN(Cc3ccccc3)CC4)c2)cc1`, 4.6%.
By pEC50 is commonly meant −log10 of the EC50, conventionally taken in molar units. `Cl.O=C(O)C[C@@H]1COc2cc(OCc3cccc(-c4ccc5c(c4)CCN(Cc4ccccc4)C5)c3)ccc21`: the Activity in data set [1] stood at 136%; in data set [2] it was 2.9 ng/mL; in data set [7], 196.2 mg/dL; in [8], 150.2 mg/dL; in data set [9] it was 49.9 mg/dL; in [12] it was 13.8%. Besides, in data set [11], the pEC50 was 5.92. The inhibition at 5 µM in data set [3] was found to be 23.6%; in [4], 16.2%; in [5], 30.7%; in [6], 20.9%.
With `O=C(O)C[C@@H]1COc2cc(OCc3cccc(-c4cccc5c4CCN(Cc4ccccc4)C5)c3)ccc21`, in data set [1], the Activity was 89.4%. The molecule also had a pEC50 in data set [11] of 5.27.
Take `O=C(O)COc1ccc(OCc2cccc(-c3ccc4c(c3)CCN(Cc3ccccc3)C4)c2)cc1`: the Activity in data set [1] was determined as 17.8%.
On the same count and under the same terms, the result for `O=C(O)C[C@@H]1COc2cc(OCc3cccc(-c4cccc5c4CCN(CCc4ccccc4)C5)c3)ccc21` reads 54.8%.
For `Cl.O=C(O)C[C@@H]1COc2cc(OCc3cccc(-c4ccc5c(c4)CN(Cc4ccccc4)CC5)c3)ccc21`, the Activity in [1] amounted to 108%; in data set [2], 2.8 ng/mL; in data set [7], 214.1 mg/dL; in [8], 172.7 mg/dL; in data set [9], 58 mg/dL. The molecule also had a pEC50 in [11] of 6.10. For the same molecule, the inhibition at 5 µM in [3] came out at 39.5%; in data set [4], 3.94%; in data set [5], 27.6%; in [6] it was 25.7%. Further, in [10], the AUC was found to be 2.81e+06 ng·h/mL.
Consider `O=C(O)C[C@@H]1COc2cc(OCc3cccc(-c4ccc5c(c4)CN(C(=O)c4ccccc4)CC5)c3)ccc21`, for which, in data set [11], the Activity amounted to 46%.
In the case of `C=C[C@H]1C[N@@]2CC[C@H]1C[C@@H]2[C@@H](O)c1ccnc2ccc(OC)cc12` [QUINIDINE], the inhibition at 2 µM in data set [13] was 93.3%.
For the molecule `O=C(O)COc1ccc(OCc2cccc(-c3cccc4c3CCN(Cc3ccccc3)C4)c2)cc1`, the Activity in [1] is 28.8%.
For the molecule `O=C(O)C[C@@H]1COc2cc(OCc3cccc(-c4ccc5c(c4)CN(Cc4ccccc4)C5)c3)ccc21`, the Activity in [1] worked out at 89.8%. This molecule showed a pEC50 in data set [11] of 5.52.
As to `O=C(O)C[C@@H]1COc2cc(OCc3cccc(-c4ccc5c(c4)CN(C(=O)Cc4ccccc4)C5)c3)ccc21`, the Activity in data set [1] is 34.8%.
As to `O=C(O)C[C@@H]1COc2cc(OCc3cccc(-c4cccc5c4CCN(C(=O)c4ccccc4)C5)c3)ccc21`, the Activity in data set [1] was determined as 84.2%. Also, in data set [11], the pEC50 is 5.66.
On to `O=C(O)C[C@@H]1COc2cc(OCc3cccc(-c4ccc5c(c4)CCN(C(=O)c4ccccc4)C5)c3)ccc21`, for which the Activity in [1] is 39.8%.
On the same count and under the same terms, under `CCN1CCc2c(cccc2-c2cccc(COc3ccc4c(c3)OC[C@H]4CC(=O)O)c2)C1` stands 7.8%.
Turning to `CC(C)(CC(=O)O)c1ccc(OCc2cccc(-c3cccc4c3CCN(Cc3ccccc3)C4)c2)cc1`, the Activity in data set [1] is 90%. Also, the pEC50 in [11] is 6.10.
`O=C(O)C[C@@H]1COc2cc(OCc3cccc(-c4ccc5c(c4)CN(C(=O)Cc4ccccc4)CC5)c3)ccc21` yielded an Activity in data set [1] of 20.4%.
In the case of `Cc1nc2c([nH]1)c(=O)n(C)c(=O)n2Cc1ccco1` [FURAFYLLINE], in [14], the inhibition at 10 µM was 71.4%.
`O=C(O)COc1ccc(OCc2cccc(-c3ccc4c(c3)CN(Cc3ccccc3)C4)c2)cc1`: the Activity in [1] amounted to 18.9%.
Same read-out and setting: the result for `CC(C)(CC(=O)O)c1ccc(OCc2cccc(-c3ccc4c(c3)CN(Cc3ccccc3)C4)c2)cc1` reads 23.8%; that for `CC(C)(CC(=O)O)c1ccc(OCc2cccc(-c3ccc4c(c3)CCN(Cc3ccccc3)C4)c2)cc1`, 58.6%.
The molecule `O=C(O)C[C@@H]1COc2cc(OCc3cccc(-c4ccc5c(c4)CCN(CCc4ccccc4)C5)c3)ccc21` gave an Activity in data set [1] of 85%. For the same molecule, in data set [11], the pEC50 was 5.40.

The record behind these values is ChEMBL document CHEMBL4229516, “Design, synthesis and biological evaluation of a series of novel GPR40 agonists containing nitrogen heterocyclic rings” (Bioorg Med Chem Lett, 2018).
